Test: xn = mol fraction of the nth substance listed
Settings: 100.7 kPa, Liquid; for viscosity: Falling or rolling sphere viscometry; for speed of sound: Frequency=3 MHz, Sing-around technique in a fixed-path interferometer; for mass density: Vibrating tube method

CCCC=O [butanal] + CCCC[n+]1ccn(C)c1.O=S(=O)([N-]S(=O)(=O)C(F)(F)F)C(F)(F)F
Settings	mass density, 313.15 K [kg/m3]	mass density, 318.15 K [kg/m3]	mass density, 323.15 K [kg/m3]	speed of sound, 313.15 K [m/s]	speed of sound, 318.15 K [m/s]	speed of sound, 323.15 K [m/s]	viscosity, 313.15 K [mPa·s]	viscosity, 318.15 K [mPa·s]	viscosity, 323.15 K [mPa·s]
x2 = 0	781.37	776.39	771.3	1130.6	1109.6	1088.8	0.36	0.35	0.32
x2 = 0.0222	–	–	–	1129.3	1108.4	1087.5	–	–	–
x2 = 0.0464	–	–	–	1128.5	1107.7	1086.7	–	–	–
x2 = 0.0748	–	–	–	1127.9	1107	1086.1	–	–	–
x2 = 0.1056	966.81	961.43	957.54	1129.2	1109	1087.8	0.8	0.69	0.56
x2 = 0.2135	1092.97	1088.71	1084.6	1136.5	1118.4	1099.2	1.53	1.23	0.94
x2 = 0.3088	1173.06	1169.26	1165.17	1144.7	1128.2	1110.2	2.39	1.96	1.43
x2 = 0.4153	1240.28	1236.78	1232.87	1152.6	1137.7	1120.3	3.69	2.96	2.24
x2 = 0.5025	1282.97	1279.56	1275.6	1159.6	1145.2	1128.5	5.13	4.06	3.07
x2 = 0.5987	1320.95	1317.62	1313.47	1166.8	1153.1	1138.5	6.82	5.62	4.43
x2 = 0.6852	1349.19	1345.51	1341.63	1174.2	1162.1	1147.2	8.86	7.72	6.21
x2 = 0.7729	1373.41	1369.39	1365.48	1181.8	1170.1	1156.5	11.8	10.43	8.42
x2 = 0.8852	1399.8	1395.55	1391.08	1189.6	1179.3	1166.2	17.93	15.49	12.99

Reference: the NIST ThermoML archive (doi:10.1016/j.jct.2015.09.022)
